Reference: patent US20240391923A1, “METHIONINE ADENOSYLTRANSFERASE 2A INHIBITOR FOR TREATING MTAP DELETION-TYPE CANCER” (SUZHOU GENHOUSE BIO CO., LTD., priority 2022, published 2024)
Like-named read-outs stand apart in the source and are kept apart here.

Experiments:
[1] = tested on: SDMA in HCT116-MTAP-knockout cell line; assay: Cell symmetric dimethylarginine (SDMA) test, In-cell Western, HCT116-MTAP-knockout; assay type: cell-based; conditions: Homo sapiens, 96 h
[2] = tested on: Hut-78 cell strain; assay: Tumor cell proliferation inhibition assay (CellTiter-Glo), Hut-78; assay type: cell-based; conditions: Homo sapiens, HuT78, 120 h, Hut-78 cells, 5-day treatment
Method: After the HCT116-MTAP-knockout (−/−) cell strain, the HCT116-MTAP wild-type(+/+)-cell strain, the DOHH-2 cell strain, or the Hut-78 cell strain was treated with the test compound for 5 days, the ATP level was measured using a CellTiter-Glo kit of Promega to evaluate the inhibition of the test compound against the growth of the tumor cell strain.
In the present application, the HCT116-MTAP-knockout (−/−) cell strain, the HCT116-MTAP wild-type (+/+)-cell strain, the DOHH-2 cell strain, or the Hut-78 cell strain was seeded into a 96-well cell culture plate at an appropriate cell density. After 24 h, the cells were treated using the test compounds diluted 1:3 fold at the highest concentration of 10 μM for 10 gradients, and a DMSO treatment group was set up separately. The cells were cultured in a 37° C./5% CO2 incubator for 5 days.

[3] = tested on: HCT116-MTAP wild-type (+/+)-cell strain; assay: Tumor cell proliferation inhibition assay (CellTiter-Glo), HCT116-MTAP wild-type (+/+); assay type: cell-based; conditions: Homo sapiens, 120 h, HCT116-MTAP wild-type (+/+) cells, 5-day treatment
Outline: (§1)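 Ten-point compound titration (1:3, highest 10 μM) started 24 h after plating, DMSO group included; cultures kept 5 days at 37° C. with 5% CO2 before CellTiter-Glo ATP readout of growth inhibition.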

[4] = tested on: SDMA in human colon cancer cell line HCT116; assay: Cell symmetric dimethylarginine (SDMA) test, In-cell Western, HCT116 (MTAP wild-type); assay type: cell-based; conditions: Homo sapiens, HCT-116, 96 h
Outline: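 SDMA level, an indirect readout of cellular MAT2A inhibition, measured by In-cell Western as background-subtracted 800/700 nm signal against DRAQ5. Cells exposed 4 days to six 1:4-diluted doses from 6 μM; inhibition relative to DMSO, IC50 from sigmoidal fit.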

[5] = target: MAT2A recombinant protein (Homo sapiens, UniProt P31153); assay: MAT2A inhibitory activity (malachite green colorimetric enzyme assay); assay type: biochemical
Outline: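 Compounds tested over 10 points, 3-fold dilutions, top final concentration 1000 nM. Enzyme reaction: MAT2A, L-methionine, ATP, room temperature, 60 min, in HEPES pH 7.5 buffer with KCl, MgCl2 and DTT; inorganic phosphate read colorimetrically (malachite green, A630). Inhibition vs log concentration fitted for IC50.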

[6] = tested on: HCT116-MTAP-knockout (−/−) cell strain; assay: Tumor cell proliferation inhibition assay (CellTiter-Glo), HCT116-MTAP-knockout (-/-); assay type: cell-based; conditions: Homo sapiens, 120 h, HCT116-MTAP-knockout (−/−) cells, 5-day treatment
Outline: as §1

[7] = IC50 score class, read-out: Cell 96 h SDMA Inhibition (HCT116-MTAP−/−) (score)
[8] = read-out: Cell 96 h SDMA Inhibition (HCT116-MTAP−/−)
[9] = IC50 score, read-out: Tumor cell 5-day relative growth inhibition (Hut-78) (nM), score
[10] = IC50 value, read-out: Tumor cell 5-day relative growth inhibition (Hut-78)
[11] = IC50 score, read-out: Tumor cell 5-day relative growth inhibition (HCT116-MTAP+/+) (nM), score
[12] = IC50 value, read-out: Tumor cell 5-day relative growth inhibition (HCT116-MTAP+/+)
[13] = IC50 score class, read-out: Cell 96 h SDMA Inhibition (HCT116-MTAP+/+) (score)
[14] = read-out: Cell 96 h SDMA inhibition (HCT116-MTAP+/+)
[15] = IC50 score class, read-out: MAT2A Inhibition (score)

Sequence of MAT2A recombinant protein (P31153 whole entry): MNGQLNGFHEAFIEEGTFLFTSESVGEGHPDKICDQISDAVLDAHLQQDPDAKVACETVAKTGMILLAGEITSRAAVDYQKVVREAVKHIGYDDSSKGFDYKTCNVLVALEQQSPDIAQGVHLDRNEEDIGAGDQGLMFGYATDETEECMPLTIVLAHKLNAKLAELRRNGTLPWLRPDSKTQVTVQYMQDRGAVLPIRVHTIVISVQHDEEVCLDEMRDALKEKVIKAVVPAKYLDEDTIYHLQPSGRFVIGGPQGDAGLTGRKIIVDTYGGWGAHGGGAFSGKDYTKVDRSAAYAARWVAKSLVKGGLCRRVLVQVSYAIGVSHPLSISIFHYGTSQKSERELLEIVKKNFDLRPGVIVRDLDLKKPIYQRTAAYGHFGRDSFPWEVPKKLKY

| SMILES | IC50 [1, 7] [nM] | IC50 [1, 8] [nM] | IC50 [2, 9] [nM] | IC50 [2, 10] [nM] | IC50 [3, 11] [nM] | IC50 [3, 12] [nM] | IC50 [4, 13] [nM] | IC50 [4, 14] [nM] | IC50 [5, 15] [nM] | IC50 ([5]; read-out: MAT2A Inhibition) [nM] | IC50 ([6]; IC50 score, read-out: Tumor cell 5-day relative growth inhibition (HCT116-MTAP−/−) (nM), score) [nM] | IC50 ([6]; IC50 value, read-out: Tumor cell 5-day relative growth inhibition (HCT116-MTAP−/−)) [nM] |
| --- | --- | --- | --- | --- | --- | --- | --- | --- | --- | --- | --- | --- |
| O=c1c2nn(CC3CC3)cc2c2ccc(C(F)(F)F)nc2n1-c1cccnc1 [Compound B199] | < 200 | 184 | < 500 | 323 | ≥ 2000 | 53800 | 200 to 1000 | 899 | < 100 | 53.7 | < 500 | 181 |
| Cn1cc2c(n1)c(=O)n(-c1ccc3[nH]cnc3c1)c1cc(Cl)ccc21 [Compound B206] | 1000 to 3000 | 1180 | ≥ 2000 | > 2000 | – | – | 1000 to 3000 | 1290 | < 100 | 93 | – | – |
| Cc1ncccc1-n1c(=O)c2nn(C3CC3)cc2c2ccc(C(F)(F)F)nc21 [Compound B211] | < 200 | 39.1 | < 500 | 47.7 | 500 to 2000 | 1150 | 1000 to 3000 | 1020 | < 100 | 35.8 | – | – |
| Cc1[nH]nc2c(=O)n(-c3cccnc3)c3nc(C(F)(F)F)ccc3c12 [Compound B216] | < 200 | 134 | < 500 | 245 | ≥ 2000 | 3590 | 200 to 1000 | 433 | < 100 | 25.3 | – | – |
| Cc1cncc(-n2c(=O)c3nn(C)cc3c3ccc(C(F)(F)F)nc32)c1 [Compound B217] | 1000 to 3000 | 1820 | ≥ 2000 | 5430 | ≥ 2000 | > 2000 | > 3000 | > 3000 | – | – | – | – |
| COc1ccc(-n2cc3c(n2)c(=O)n(-c2ccccc2)c2nc(C(F)(F)F)ccc32)cc1 [Compound B218] | < 200 | 39.5 | < 500 | 130 | ≥ 2000 | 3990 | > 3000 | > 3000 | < 100 | 77.9 | – | – |
| Cn1cc2c(n1)c(=O)n(-c1cncc(O)c1)c1nc(C(F)(F)F)ccc21 [Compound B221] | 1000 to 3000 | 2540 | ≥ 2000 | 10600 | ≥ 2000 | > 2000 | 200 to 1000 | 475 | < 100 | 52.7 | – | – |
| Cc1ccc(-n2c(=O)c3nn(C)cc3c3ccc(C(F)(F)F)nc32)cn1 [Compound B223] | 200 to 1000 | 692 | 500 to 2000 | 1360 | ≥ 2000 | > 2000 | 200 to 1000 | 583 | – | – | – | – |
| Cc1ncccc1-n1c(=O)c2nn(C3CC3)cc2c2ccc(Cl)cc21 [Compound B226] | < 200 | 16.5 | < 500 | 27.7 | 500 to 2000 | 1030 | 200 to 1000 | 919 | < 100 | 30.9 | – | – |
| Cn1cc2c(n1)c(=O)n(-c1cnccn1)c1nc(C(F)(F)F)ccc21 [Compound B227] | > 3000 | 4690 | ≥ 2000 | 4710 | ≥ 2000 | ≥ 2000 | > 3000 | 3030 | < 100 | 51.8 | – | – |
| Cn1cc2c(n1)c(=O)n(-c1ccc(F)c(O)c1)c1nc(C(F)(F)F)ccc21 [Compound B228] | 1000 to 3000 | 2910 | ≥ 2000 | 3450 | ≥ 2000 | > 2000 | > 3000 | 3220 | < 100 | 37.3 | – | – |
